# Patent US8440718B2, “Modulation of inflammation related to columnar epithelia” (The Brigham and Women's Hospital, Inc., priority 1991, dated 2013)
# Several values for one entry are separate records, joined by “and”; a condition that tells them apart may be missing. Equal entries are not always repeated.
# What was measured:
# [1] = system: human PMN migration across T84 epithelial monolayers; assay: PMN transepithelial migration assay, apical-to-basolateral direction, fMLP gradient, myeloperoxidase readout; type: cell-based
# Description: (§1) Cell culture Approximately 350 epithelial monolayers were used for these studies. T84 intestinal epithelial cells (passages 70-95) were grown and maintained as confluent monolayers on collagen coated permeable support. Monolayers were grown on 0.33 cm^2 ring-supported polycarbonate filters (Costar Corp., Cambridge, Mass.) and utilized 6-14 days after plating as described in Example 2. Transepithelial resistance to passive ion flow was measured as described in Parkos C. A., et al. (1991). J. Clin. Invest. 88: 1605-1612); and Parkos C. A., et al. (1992). J. Cell. Biol. 117: 757-764). Inverted monolayers used to study migration of PMN in the basolateral-to-apical direction were constructed as described in Parkos C. A., et al. (1991). J. Clin. Invest. 88:1605-1612).
# (§2) Migration assay: The PMN transepithelial migration assay has been detailed in Nash S., et al. (1987). J. Clin. Invest. 80: 1104-1113; Nash S., et al. (1991). J. Clin. Invest 87: 1474-1477); Parkos C. A., et al. (1991). J. Clin. Invest. 88: 1605-1612); and Parkos C. A., et al. (1992). J. Cell. Biol. 117: 757-764. Briefly, human PMN were isolated from normal human volunteers and suspended in modified HBSS (without Ca^2+ and Mg^2+, with 10 mM Hepes, pH 7.4, Sigma) at a concentration of 5×10^7/ml. Prior to addition of PMN, T84 monolayers were extensively rinsed in HBSS to remove residual serum components. Migration assays were performed by the addition of PMN (40 μl) to HBSS ([…]) in the upper chambers after chemoattractant (1 μM fMLP in HBSS) was added to the opposing (lower) chambers. Unless otherwise indicated, PMN were not washed free of LXA4 prior to addition to monolayers, and therefore, a five-fold dilution of lipoxin was present during the migration assay. For apical-to-basolateral migration experiments, PMN (2×10^6) were added at time 0. Migration in the basolateral-to-apical direction, while qualitatively similar, is substantially more efficient than in the apical-to-basolateral direction. (Parkos C. A., et al. (1991). J. Clin. Invest. 88: 1605-1612). Therefore, 5-fold fewer PMN (4×10^5) were added when migration proceeded in the basolateral-to-apical direction in order that baseline migration signals be approximately equivalent in both directions. (Parkos C. A., et al. (1991). J. Clin. Invest. 88: 1605-1612). Migration was allowed to proceed for 120 minutes, unless otherwise noted. All PMN transepithelial migration experiments were performed in a 37° C. room to ensure that epithelial monolayers, solutions, plasticware, etc., were maintained at uniform 37° C. temperature.
# (§3) Migration was quantitated by assaying for the PMN azurophilic granule marker myeloperoxidase (MPO) as described previously (Parkos C. A., et al. (1991). J. Clin. Invest 88: 1605-1612). Following each migration assay, non-adherent PMN were extensively washed from the surface of the monolayer and PMN cell equivalents (PMN CE), estimated from a standard curve, were assessed as the number of PMN's associated with the monolayer, the number which had completely traversed the monolayer (ie. across the monolayer into the reservoir bath), as well as the total number of transmigrating PMN (the sum of monolayer and reservoir-associated PMN).
# (§4) Data Presentation: Individual experiments were performed using large numbers of uniform groups of monolayers and PMN from individual blood donors on individual days. PMN isolation was restricted to five different blood donors (repetitive donations) over the course of these studies. Myeloperoxidase assay data were compared by two-factor analysis of variance (ANOVA) or by comparison of means using Student's t-Test PMN migration results are represented as PMN CE derived from a daily standard PMN dilution curve. Monolayer-associated PMN are represented as the number of PMN CE per monolayer and reservoir-associated PMN (ie. PMN which had completely traversed the monolayer into the lower chamber) are represented as the number of PMN CE/ml (total volume of 1 ml). […]
# [2] = system: human PMN migration across inverted T84 epithelial monolayers; assay: PMN transepithelial migration assay, basolateral-to-apical direction (inverted monolayers), fMLP gradient, myeloperoxidase readout; type: cell-based
# Description: as §1, §2, §3, §4
# [3] = system: human PMN migration across T84 epithelial monolayers; assay: PMN chemotactic capacity toward LXA4 placed in lower chamber, apical-to-basolateral; type: cell-based; details: compared to 1 μM fMLP
# Description: as §2, §3
# To investigate whether LXA4 could serve to stimulate PMN migration in this assay system, dilutions of LXA4 in the range of 0.01-10 nM were placed in the lower chamber of migration wells. Untreated PMN's were added to the upper chamber and assessed for chemotactic capacity toward LXA4 in the apical-to-basolateral direction. […]
# [4] = molecular target: lipoxin binding sites on human PMN; details: reported; cited from earlier work
# [5] = 10 nM LXA4, 30 min pre-exposure
# [6] = PMN pre-exposed 10 nM LXA4 15 min 37°C, 1 μM fMLP, 120 min
smiles,measurement,setting,value
"CCCCC[C@H](O)/C=C/C=C\C=C\C=C\[C@@H](O)[C@@H](O)CCCC(=O)O (relative stereo) [LXA4, (5S, 6R, 15S)-trihydroxy-7,9,13-trans-11-cis-eicosatetraenoic acid]",PMN in lower reservoirs,"[1]; 0.001 nM LXA4, 15 min pre-exposure 37°C",13.71±4.14 ×10^4 PMN CE/ml
same,PMN in lower reservoirs,"[1]; 0.01 nM LXA4, 15 min pre-exposure 37°C",14.11±3.01 ×10^4 PMN CE/ml
same,PMN in lower reservoirs,"[1]; 0.1 nM LXA4, 15 min pre-exposure 37°C",15.43±4.65 ×10^4 PMN CE/ml
same,PMN in lower reservoirs,"[1]; 1 nM LXA4, 15 min pre-exposure 37°C",19.96±4.83 ×10^4 PMN CE/ml
same,total PMN migration after LXA4 washout,"[1]; 10 nM LXA4 15 min, PMN then washed twice in HBSS",14.5±0.3 ×10^4 PMN CE/ml
same,total PMN migration (total MPO activity),"[1]; 10 nM LXA4 15 min, harvested 45 min after addition of PMN",1.51±0.12 ×10^4 PMN CE/ml
same,fold increase in the total number of transmigrating PMN,[1]; 10 nM LXA4 15 min vs vehicle control,~2 fold
same,total PMN migration,"[1]; 10 nM LXA4, 0 min pre-exposure",16.61±3.56 ×10^4 total PMN CE/ml
same,total PMN migration relative to vehicle control,"[1]; 10 nM LXA4, 45 and 60 minutes pre-exposure",returned to vehicle control values
same,increase in total PMN migration compared to vehicle controls,"[1]; 10 nM LXA4, 5 min pre-exposure",50%
same,reservoir-associated PMN,"[1]; 10 nM LXA4, 5 min pre-exposure",18.02±3.35 ×10^4 PMN CE/ml
same,increase in total PMN migration compared to vehicle controls,"[1]; 10 nM LXA4, 15 min pre-exposure",80% and 68%
same,increase in total PMN migration compared to vehicle controls,[1]; [5],51%
same,reservoir-associated PMN,[1]; [5],19.64±3.54 ×10^4 PMN CE/ml
same,monolayer-associated PMN,[1]; [6],6.93±1.77 ×10^4 PMN CE/monolayer and 7.55±0.71 ×10^4 PMN CE/monolayer
same,reservoir-associated PMN (completely traversed the monolayer),[1]; [6],11.02±2.91 ×10^4 PMN CE/ml and 19.96±3.18 ×10^4 PMN CE/ml and 20.38±4.83 ×10^4 PMN CE/ml
same,total number of transmigrating PMN,"[1]; PMN pre-exposed 10 nM LXA4 15 min, LXA4 present, 1 μM fMLP, 120 min",18.6±1.0 ×10^4 PMN CE/ml and 17.95±2.15 ×10^4 PMN CE/ml
same,"inhibition of PMN migration, basolateral-to-apical (total MPO activity)","[2]; 10 nM, 15 min pre-incubation 37°C, 1 μM fMLP, 120 min",28±4% and 25%
same,"transmigrated (reservoir) PMN, basolateral-to-apical",[2]; PMN pre-exposed 1 nM LXA4 15 min,6.99±1.33 ×10^4 PMN/ml
same,"monolayer-associated PMN, basolateral-to-apical",[2]; PMN pre-exposed 10 nM LXA4 15 min,2.00±0.31
same,"PMN migration toward LXA4, % of fMLP-induced PMN migration",[3]; 0.01 nM LXA4 in lower chamber,6±2.1%
same,"PMN migration toward LXA4, % of fMLP-induced PMN migration",[3]; 0.1 nM LXA4 in lower chamber,9±3.6%
same,"PMN migration toward LXA4, % of fMLP-induced PMN migration",[3]; 1.0 nM LXA4 in lower chamber,6±2.4%
same,"PMN migration toward LXA4, % of fMLP-induced PMN migration",[3]; 10 nM LXA4 in lower chamber,12±1.4%
same,Kd,[4],0.5 nM
